Data as given in patent publication US20110060009A1, “Hydroxamate-Based Inhibitors of Deacetylases” (NOVARTIS AG, priority 2009, published 2011).

How the values were obtained:
[1] = target: T1, HDAC-1 (Homo sapiens, UniProt Q13547); test: HDAC Inhibition Assay (purified GST-HDAC protein); assay type: biochemical
T1 construct: made in house; host or cells: Sf9 or Sf21 insect cells (baculovirus, donor vector pFB-GSTX3)
Description: The baculovirus donor vector pFB-GSTX3 is used to generate a recombinant baculovirus that expresses the HDAC polypeptide. Transfer vectors containing the HDAC coding region are transfected into the DH10Bac cell line (GIBCO) and plated on selective agar plates. Colonies without insertion of the fusion sequence into the viral genome (carried by the bacteria) are blue. Single, white colonies are picked and viral DNAs (bacmid) are isolated from the bacteria by standard plasmid purification procedures. Sf9 cells or Sf21 (American Type Culture Collection) cells are then transfected in […] flasks with the viral DNA using Cellfectin reagent.
Virus-containing media is collected from the transfected cell culture and used for infection to increase its titer. Virus-containing media obtained after two rounds of infection is used for large-scale protein expression. For large-scale protein expression 100 cm^2 round tissue culture plates are seeded with 5×10^7 cells/plate and infected with 1 mL of virus-containing media (at an approximately MOI of 5). After 3 days, the cells are scraped off the plate and centrifuged at 500 rpm for 5 minutes. Cell pellets from 10-20, 100 cm^2 plates, are re-suspended in 50 mL of ice-cold lysis buffer (25 mM tris-HCl, pH 7.5, 2 mM EDTA, 1% NP-40, 1 mM DTT, 1 mM P MSF). The cells are stirred on ice for 15 minutes and then centrifuged at 5,000 rpms for 20 minutes.
The centrifuged cell lysate is loaded onto a 2 mL glutathione-sepharose column (Pharmacia) and is washed thrice with 10 mL of 25 mM tris-HCl, pH 7.5, 2 mM EDTA, 1 mM DTT, 200 mM NaCl. The GST-tagged proteins are then eluted by 10 applications (1 mL each) of 25 mM tris-HCl, pH 7.5, 10 mM reduced-glutathione, 100 mM NaCl, 1 mM DTT, 10% glycerol and stored at −70° C.
HDAC assays with purified GST-HDAC protein are carried out in a final volume of 30 μL containing 15 ng of GST-HDAC protein, 20 mM tris-HCl, pH 7.5, 1 mM MnCl2, 10 mM MgCl2, 1 mM DTT, 3 μg/mL poly(Glu,Tyr) 4:1, 1% DMSO, 2.0 μM ATP (γ-[^33P]-ATP 0.1 μCi). The activity is assayed in the presence or absence of inhibitors. The assay is carried out in 96-well plates at ambient temperature for 15 minutes under conditions described below and terminated by the addition of 20 μL of 125 mM EDTA. Subsequently, 40 μL of the reaction mixture are transferred onto EMMOBILON-PVDF membrane (Millipore) previously soaked for 5 minutes with methanol, rinsed with water, then soaked for 5 minutes with 0.5% H3PO4 and mounted on vacuum manifold with disconnected vacuum source. After spotting all samples, a vacuum is connected and each well-rinsed with 200 μL 0.5% H3PO4. Membranes are removed and washed four times on a shaker with 1.0% H3PO4, once with ethanol. Membranes are counted after drying at ambient temperature, mounting in Packard TopCount 96-well frame, and addition of 10 μL/well of MICROSCINT™ (Packard). IC50 values are calculated by linear regression analysis of the percentage inhibition of each compound in duplicate, at 4 concentrations (usually 0.01, 0.1, 1 and 10 μM).
• Input: 3×4 μL stopped assay on IMMOBILON membrane, not washed • Background (3 wells): assay with H2O instead of enzyme • Positive control (4 wells): 3% DMSO instead of compound • Bath control (1 well): no reaction mix
IC50 values are calculated by logarithmic regression analysis of the percentage inhibition of each compound at 4 concentrations (usually 3- or 10-fold dilution series starting at 10 μM). In each experiment, the actual inhibition by reference compound is used for normalization of IC50 values to the basis of an average value of the reference inhibitor:
Normalized IC50=measured IC50 average ref. IC50/measured ref. IC50

[2] = tested on: HCT116; test: HCT116 IC50 (Table 2, no method described); assay type: cell-based; settings: Homo sapiens, HCT-116

T1 sequence (Q13547 whole entry, species assumed): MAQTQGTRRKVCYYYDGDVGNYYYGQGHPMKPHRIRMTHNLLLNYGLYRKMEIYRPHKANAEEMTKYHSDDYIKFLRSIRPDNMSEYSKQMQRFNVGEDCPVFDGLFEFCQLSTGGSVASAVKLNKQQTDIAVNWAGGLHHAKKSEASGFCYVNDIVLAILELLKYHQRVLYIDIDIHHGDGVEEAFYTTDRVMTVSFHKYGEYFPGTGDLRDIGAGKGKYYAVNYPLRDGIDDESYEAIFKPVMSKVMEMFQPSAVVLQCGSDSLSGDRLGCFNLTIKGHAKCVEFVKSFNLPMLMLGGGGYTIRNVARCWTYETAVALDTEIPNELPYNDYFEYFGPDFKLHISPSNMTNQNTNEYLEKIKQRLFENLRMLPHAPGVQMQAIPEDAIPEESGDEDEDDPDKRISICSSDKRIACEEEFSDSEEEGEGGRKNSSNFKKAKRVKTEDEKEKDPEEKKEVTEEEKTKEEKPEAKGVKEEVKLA

| Compound | IC50 [1] [nM] | IC50 [2] [nM] |
| --- | --- | --- |
| CC(c1ccc(/C=C/C(=O)NO)cc1)N1CCC[C@H]1CN1CCCC1 (stereo partly drawn) [Cpd 16, (E)-N-Hydroxy-3-{4-[1-((S)-2-pyrrolidin-1-ylmethyl-pyrrolidin-1-yl)-ethyl]-phenyl}-acrylamide] | 380 |  |
| O=C(/C=C/c1ccc(CN2CCC[C@@H]2Cc2nc(-c3ccccc3)no2)cc1)NO [Cpd 39, (E)-N-Hydroxy-3-{4-[(R)-2-(3-phenyl-[1,2,4]oxadiazol-5-ylmethyl)-pyrrolidin-1-ylmethyl]-phenyl}-acrylamide] | 20 |  |
| O=C(/C=C/c1ccc(CN2CCC[C@@H]2C(=O)c2c[nH]c3ccccc23)cc1)NO [Cpd 12, (E)-N-Hydroxy-3-{4-[(R)-2-(1H-indole-3-carbonyl)-pyrrolidin-1-ylmethyl]-phenyl}-acrylamide] | 38 | 520 |
| O=C(/C=C/c1ccc(CN2CCC[C@H]2CN2CCc3ccccc32)cc1)NO [Cpd 19, (E)-3-{4-[(S)-2-(2,3-Dihydro-indol-1-ylmethyl)-pyrrolidin-1-ylmethyl]-phenyl}-N-hydroxy-acrylamide] | 36 | 100 |
| Cc1[nH]c2ccccc2c1C[C@H]1C[C@H](O)CN1Cc1ccc(/C=C/C(=O)NO)cc1 [Cpd 21, (E)-N-Hydroxy-3-{4-[(2S,4S)-4-hydroxy-2-(2-methyl-1H-indol-3-ylmethyl)-pyrrolidin-l-ylmethyl]-phenyl}-acrylamide] | 0.7 | 1 |
| O=C(/C=C/c1ccc(CN2CCC[C@H]2Cc2c[nH]c3ccccc23)c(F)c1)NO [Cpd 8, (E)-3-{3-Fluoro-4-[(S)-2-(1H-indol-3-ylmethyl)-pyrrolidin-1-ylmethyl]-phenyl}-N-hydroxy-acrylamide] | 10 | 83 |
| O=C(/C=C/c1ccc(CN2CCC[C@@H]2Cc2c[nH]c3ccccc23)cc1)NO [Cpd 2, (E)-N-Hydroxy-3-{4-[(R)-2-(1H-indol-3-ylmethyl)-pyrrolidin-1-ylmethyl]-phenyl}-acrylamide] | 0.65 | 3 |
| Cc1[nH]c2ccccc2c1C[C@H]1CCCN1Cc1ccc(/C=C/C(=O)NO)cc1F [Cpd 10, (E)-3-{3-Fluoro-4-[(R)-2-(2-methyl-1H-indol-3-ylmethyl)-pyrrolidin-1-ylmethyl]-phenyl}-N-hydroxy-acrylamide] | 0.7 | 0.6 |
| CC(C)CC1CCCN1Cc1ccc(/C=C/C(=O)NO)cc1 (centres unmarked) [Cpd 5, (E)-N-Hydroxy-3-[4-(2-isobutyl-pyrrolidin-1-ylmethyl)-phenyl]-acrylamide] | 8 |  |
| O=C(/C=C/c1ccc(CN2CCC[C@@H]2C(=O)N2CCc3ccccc32)cc1)NO [Cpd 17, (E)-3-{4-[(R)-2-(2,3-Dihydro-indole-1-carbonyl)-pyrrolidin-1-ylmethyl]-phenyl}-N-hydroxy-acrylamide] | 210 | 950 |
| O=C(/C=C/c1ccc(CN2CCC[C@H]2C(=O)c2c[nH]c3ccccc23)cc1)NO [Cpd 11, (E)-N-Hydroxy-3-{4-[(S)-2-(1H-indole-3-carbonyl)-pyrrolidin-1-ylmethyl]-phenyl}-acrylamide] | 56 | 560 |
| O=C(/C=C/c1ccc(CN2C[C@@H](O)C[C@@H]2Cc2c[nH]c3ccccc23)cc1)NO [Cpd 22, (E)-N-Hydroxy-3-{4-[(2S,4S)-4-hydroxy-2-(1H-indol-3-ylmethyl)-pyrrolidin-1-ylmethyl]-phenyl}-acrylamide] | 0.45 | 4 |
| CO[C@@H]1C[C@H](Cc2c(C)[nH]c3ccccc23)N(Cc2ccc(/C=C/C(=O)NO)cc2)C1 [Cpd 24, (E)-N-Hydroxy-3-{4-[(2S,4R)-4-methoxy-2-(2-methyl-1H-indol-3-ylmethyl)-pyrrolidin-1-ylmethyl]-phenyl}-acrylamide] | 1.2 | 0.5 |
| Cc1[nH]c2ccccc2c1C[C@H]1CCCN1[C@H](C)c1ccc(/C=C/C(=O)NO)cc1 [Cpd 15, (E)-N-Hydroxy-3-(4-{(R)-1-[(R)-2-(2-methyl-1H-indol-3-ylmethyl)-pyrrolidin-1-yl]-ethyl}-phenyl)-acrylamide] | 1 | 3 |
| Cc1cc(C)n(C[C@H]2CCCN2Cc2ccc(/C=C/C(=O)NO)cc2)n1 [Cpd 50, (E)-3-{4-[(R)-2-(3,5-Dimethyl-pyrazol-1-ylmethyl)-pyrrolidin-1-ylmethyl]-phenyl}-N-hydroxy-acrylamide] | 3 | 4 |
| O=C(/C=C/c1ccc(CN2CCC[C@@H]2Cn2nc(C(F)(F)F)cc2C(F)(F)F)cc1)NO [Cpd 51, (E)-3-{4-[(R)-2-(3,5-Bis-trifluoromethyl-pyrazol-1-ylmethyl)-pyrrolidin-1-ylmethyl]-phenyl}-N-hydroxy-acrylamide] | 39 | 31 |
| O=C(/C=C/c1ccc(CN2CCC[C@H]2Cc2c[nH]c3ccccc23)cc1)NO [Cpd 1, (E)-N-Hydroxy-3-{4-[(S)-2-(1H-indol-3-ylmethyl)-pyrrolidin-1-ylmethyl]-phenyl}-acrylamide] | 10 | 100 |
| Cc1nn(-c2ccccc2)c(C)c1C[C@H]1C[C@H](O)CN1Cc1ccc(/C=C/C(=O)NO)cc1 [Cpd 33, (E)-3-{4-[(2S,4S)-2-(3,5-Dimethyl-1-phenyl-1H-pyrazol-4-ylmethyl)-4-hydroxy-pyrrolidin-1-ylmethyl]-phenyl}-N-hydroxy-acrylamide] | 0.7 |  |
| Cc1[nH]c2ccccc2c1C[C@H]1CCCN1[C@@H](C)c1ccc(/C=C/C(=O)NO)cc1 [Cpd 14, (E)-N-Hydroxy-3-(4-{(S)-1-[(R)-2-(2-methyl-1H-indol-3-ylmethyl)-pyrrolidin-1-yl]-ethyl}-phenyl)-acrylamide] | 1.3 | 2.4 |
| O=C(/C=C/c1ccc(CN2CCC[C@@H]2Cn2cccn2)cc1)NO [Cpd 49, (E)-N-Hydroxy-3-[4-((R)-2-pyrazol-1-ylmethyl-pyrrolidin-1-ylmethyl)-phenyl]-acrylamide] | 15 | 26 |
| O=C(/C=C/c1ccc(CN2C[C@H](O)C[C@@H]2Cn2cc(-c3cccnc3)nn2)cc1)NO [Cpd 41, (E)-N-Hydroxy-3-{4-[(2R,4R)-4-hydroxy-2-(4-pyridin-3-yl-[1,2,3]triazol-1-ylmethyl)-pyrrolidin-1-ylmethyl]-phenyl}-acrylamide] | 170 |  |
| Cc1[nH]c2ccccc2c1C[C@H]1CCCN1Cc1ccc(/C=C/C(=O)NO)cn1 [Cpd 26, (E)-N-Hydroxy-3-{6-[(R)-2-(2-methyl-1H-indol-3-ylmethyl)-pyrrolidin-1-ylmethyl]-pyridin-3-yl}-acrylamide] | 1.7 |  |
| Cc1[nH]c2ccccc2c1C[C@H]1C[C@H](O)CN1Cc1ccc(/C=C/C(=O)NO)cn1 [Cpd 28, (E)-N-Hydroxy-3-{6-[(2S,4S)-4-hydroxy-2-(2-methyl-1H-indol-3-ylmethyl)-pyrrolidin-1-ylmethyl]-pyridin-3-yl}-acrylamide] | 1.7 |  |
| O=C(/C=C/c1ccc(CN2CCCC2Cc2cccnc2)cc1)NO (centres unmarked) [Cpd 6, (E)-N-Hydroxy-3-[4-(2-pyridin-3-ylmethyl-pyrrolidin-1-ylmethyl)-phenyl]-acrylamide] | 5 |  |
| Cc1nn(-c2ccccc2)c(C)c1C(O)[C@H]1C[C@H](O)CN1Cc1ccc(/C=C/C(=O)NO)cc1 (stereo partly drawn) [Cpd 34, (E)-3-(4-{(2R,4S)-2-[(3,5-Dimethyl-1-phenyl-1H-pyrazol-4-yl)-hydroxy-methyl]-4-hydroxy-pyrrolidin-1-ylmethyl}-phenyl)-N-hydroxy-acrylamide] | 27 |  |
